What was measured:
[1] = system: peroxynitrite production in Human epidermal keratinocytes (HEK); test: Quantification of peroxynitrite production in human epidermal keratinocytes; assay type: cell-based; conditions: 1 hour, per cell
Procedure: Human epidermal keratinocytes (HEK) are seeded in 96-well plates at a density of 3×10^4 cells/well in keratinocyte growth medium supplemented with Mix C39016-CaCl2 solution (Promocell). After 24 hours incubation, medium is replaced with fresh culture medium with scalar dilutions of the subcritical water extract at 160° C. of Example 2. Treatment is continued for 24 hours and cells treated with medium alone are used as basal control. After 24 hours incubation, peroxynitrite production is measured by a fluorescence approach with Peroxynitrite assay kit (Abcam) following the manufacturer's instructions. In brief, cells are treated with 10 μl/well sensor green working solution during 1 hour in the medium. Cells treated with SIN-1 (Sigma) 11 mM or 5.76 mM during 1 hour in combination with sensor green solution are used as a positive control of peroxynitrite production. SIN-1 (Sigma) is a nitric oxide donor. After 1-hour incubation, fluorescence is measured with an […] microplate reader (Clariostar, BMG) at excitation 490 nm and emission 530 nm. […] Cell nuclei number is determined with a confocal microscopy Operetta (PerkinElmer). Peroxynitrite fluorescence intensity is normalized to cell number for each condition.
The results in Table 8 are expressed as a percentage of peroxynitrite per cell normalized by basal condition.

arginase = test: Arginase activity reduction in human epidermal keratinocytes (colorimetric Arginase Activity kit); assay type: cell-based; conditions: 1 mM, donor
Procedure: Human epidermal keratinocytes (HEK) of donor (Tebu Bio), donor (Promocell) and donor (Promocell) are seeded in 6-well plates at a density of 3×10^5 cells/well in keratinocyte growth medium supplemented with Mix C39016-CaCl2 solution (Promocell). […] The donor's cells treated with S-(2-Boronoethyl)-L-cysteine hydrochloride (BEC, Sigma) 1 mM are used as positive control of arginase inhibition, and the donor's, donor's and 26-year-old donor's cells treated with medium alone are used as basal control of arginase activity at different ages. Treatment is continued for 24 hours. After 24 hours, cells are lysed and are analyzed by a colorimetric Arginase Activity kit (Abcam) according to manufacturer's instructions. […] Absorbance is measured by using a microplate reader (Clariostar, BMG) set to 570 nm in a kinetic mode for 30 minutes. […] Arginase activity is calculated in the exponential phase of the kinetic for each sample with the following equation: AOD═(OD2−ODBG2)−(OD1−ODBG1); where: OD1 and OD2 is the sample reading at time T1 and T2 respectively, ODBG1 and ODBG2 is the sample background reading at time T1 and T2 respectively.
Total protein amount of each sample is determined using a Pierce BCA protein assay kit (Thermo fisher) according to the manufacturer's protocol. […] Afterwards, color change is measured with an absorbance microplate reader (Clariostar, BMG) at 562 nm. […]

Q: Which results are given for `[NH-]c1c[n+](N2CCOCC2)no1` [SIN-1]?
A: Peroxynitrite production MEAN respect basal condition ([1]; 5.76 mM): 2379.00%; Peroxynitrite production MEAN respect basal condition ([1]; 11 mM): 1654.00%

Q: With `Cl.N[C@@H](CSCCB(O)O)C(=O)O` [BEC, S-(2-Boronoethyl)-L-cysteine hydrochloride] as the compound, how does the “Arginase activity MEAN subtracting basal condition and normalizing respect basal condition of cells” value (arginase) read?
A: The value was −10.58%.

Q: What about the “Arginase activity MEAN respect basal condition of cells” value (arginase; 24 h) of the same compound?
A: Its value is 70.10%.

Reference: US20240180989A1, “LIGUSTRUM LUCIDUM EXTRACT USEFUL FOR THE TREATMENT AND/OR CARE OF THE SKIN” (Lubrizol Advanced Materials, Inc., priority 2021, published 2024)
